Data on one molecule can be found in EP4610348A1, “HEPATOLENTICULAR DEGENERATION CELL, PREPARATION METHOD THEREFOR, AND EVALUATION METHOD THEREFOR” (GUANGXIU-GAOXIN LIFE SCIENCES CO., LTD. HUNAN, priority 2022, dated 2024).

The cell viability is a read-out of living cells in per cent, often relative to untreated cells.

Common to all, as to assay type: cell-based, human
The subject of series [1] is hepatolenticular degeneration hepatocytes. Put plainly: Effect of copper ion accumulation on cell viability (CCK-8). The settings on record: 48 hours. As for the experimental part:
(§1) 3.4 Effect of copper ion accumulation on cell viability: The induced cells were digested and evenly inoculated in a 96-well plate, with about 3×10^4 cells per well, and edge wells were filled with sterile PBS. After the cells were adhered to the wall, a copper sulfate or copper chloride solution in different concentrations (0 mM, 0.5 mM, 1 mM, and 1.5 mM) were added, and 6 replicate wells were set in each group. The wells without cells were set as blank wells. After incubation at 37°C for 48 hours (fresh culture medium was replaced every 22 hours to 26 hours), the original culture medium was discarded, and the cells were washed three times with DPBS. Fresh culture medium (100 µL per well) was added, and a 10 µL CCK-8 reaction solution was added to each well, followed by incubating at 37 °C in the dark for 4 hours. After the incubation, the absorbance at 450 nm was detected using a microplate reader.

The next series concerns normal hepatocytes. The series is described as above. To be noted: 48 hours. The protocol:
as §1

Series [2] relates to ATP7B gene in hepatolenticular degeneration hepatocytes. In words: Detection of ATP7B gene expression (qPCR). The settings on record: after incubation with 100 µM to 300 µM copper sulfate or copper chloride. The protocol:
(§2) 3.1 Detection of ATP7B gene expression: Cells on the last day of induction were collected, and ATP7B gene expression levels in the hepatocytes before and after incubation with 100 µM to 300 µM of copper sulfate or copper chloride were detected by qPCR method, with GAPDH gene as the internal reference. Primers were used for validation. The qPCR method was performed as follows: 95°C for 5 minutes; 45 cycles (94°C for 40 seconds, 54°C to 58°C for 10 seconds, 72°C for 10 seconds); and 72°C extension for 5 minutes.

Series [3] has as its system ATP7B gene in normal hepatocytes. In words: Detection of ATP7B gene expression (qPCR). To be noted: after incubation with 100 µM to 300 µM copper sulfate or copper chloride. The protocol: as §2
Background: Real-time PCR tracks product formation cycle by cycle.

For series [4], the system named is ATP7B protein in hepatolenticular degeneration hepatocyte. In words: Detection of ATP7B protein expression (Western blotting). To be noted: after incubation with 100 µM to 300 µM copper sulfate or copper chloride. As for the experimental part: (§3) 3.2 Detection of ATP7B protein expression: Cells on the last day of induction were collected, and ATP7B protein expression levels in the hepatocytes before and after incubation with 100 µM to 300 µM of copper sulfate or copper chloride were detected by Western blotting method, with GAPDH protein as the internal reference. The induced cells were digested and collected in a 1.5 mL EP tube. An appropriate amount of protein lysis buffer was added depending on the cell solution volume (adding 200 µL RIPA lysis buffer for 1×10^6 cells). The cell solution was pipetted up and down to mix, and the cells were lysed in an ice bath with an ultrasonic cell disruptor for 15 minutes, then centrifuged at 13000 ×g and 4°C for 10 minutes. The supernatant was transferred to a new EP tube, and the protein concentration was detected using a BCA protein quantification kit. Polyacrylamide gel for SDS-PAGE was prepared, including preparing an 8% separating gel and a stacking gel. After the stacking gel was solidified, the comb was carefully pulled out. After a 40 µg sample and a 5 µL protein marker were loaded, the electrophoresis started at a 110 V constant voltage. After the Loading Buffer ran out of the separating gel, the electrophoresis stopped. […]

In series [5] the test system is ATP7B protein in normal hepatocyte. The series is described as above. To be noted: after incubation with 100 µM to 300 µM copper sulfate or copper chloride. The protocol: as §3

For the molecule `[Cu+2]` [copper ions], the cell viability in series [1] (0.5 mM copper ions) is given as 93.25%; in series [1] (1 mM copper ions), 67.49%; in series [1] (1.5 mM copper ions) it was 34.8%; in the series with normal hepatocytes (0.5 mM copper ions), 95.33%; in the series on normal hepatocytes (1 mM copper ions), 83.78%; in the series on normal hepatocytes (1.5 mM copper ions) it was 73.53%. For the same molecule, the “expression level of the ATP7B gene” value was “not upregulated significantly” in series [2] and “significantly upregulated” in series [3]. Moreover, the “expression level of the ATP7B protein” value is “still expresses a low level of the ATP7B protein” in series [4] and “significantly increased” in series [5].
